The conditions of data set [1]: 101 kPa, Liquid.
Data set [2] can be described thus: xn = mol fraction of the nth substance listed. The note with it: 101 kPa, Liquid.

Counter-ions that a name gives are not always drawn. Numbers after ± are expanded uncertainties.

In general, mass density refers to the mass of a sample divided by its volume. One may read the viscosity as the internal friction of a fluid under shear. As for `CCC/C=C/COC(C)=O` [(E)-2-hexenyl acetate], the mass density in data set [1] (293.15 K) is 897.84 ± 3 kg/m3; in data set [1] (303.15 K), 891.78 ± 3.1 kg/m3; in data set [1] (313.15 K), 884.35 ± 3.2 kg/m3. In addition, the viscosity in data set [1] (293.15 K) is 0.901 ± 0.029 mPa·s; in data set [1] (303.15 K), 0.77 ± 0.025 mPa·s; in data set [1] (313.15 K), 0.666 ± 0.021 mPa·s.
For `CCC/C=C/COC(C)=O` [(E)-2-hexenyl acetate] + CCO, the mass density was 897.84 ± 3 kg/m3 in data set [2] (293.15 K, x1 = 1); 891.78 ± 3.1 kg/m3 in data set [2] (303.15 K, x1 = 1); 884.35 ± 3.2 kg/m3 in data set [2] (313.15 K, x1 = 1). In addition, the viscosity turned out to be 0.901 ± 0.029 mPa·s in data set [2] (293.15 K, x1 = 1); 0.77 ± 0.025 mPa·s in data set [2] (303.15 K, x1 = 1); 0.666 ± 0.021 mPa·s in data set [2] (313.15 K, x1 = 1).
As for `CC/C=C\CCOC(C)=O` [(Z)-3-hexenyl acetate], the mass density in data set [1] (293.15 K) was determined as 900.82 ± 2.9 kg/m3; in data set [1] (303.15 K) it was 893.14 ± 3 kg/m3; in data set [1] (313.15 K), 886.19 ± 3.2 kg/m3. For the same molecule, the figures for the viscosity in data set [1] (293.15 K), in data set [1] (303.15 K) and in data set [1] (313.15 K) were 0.893 ± 0.028 mPa·s, 0.763 ± 0.024 mPa·s and 0.66 ± 0.021 mPa·s, respectively.
Regarding `CC/C=C\CCOC(C)=O` [(Z)-3-hexenyl acetate] + CCO, the mass density was 900.82 ± 2.9 kg/m3 in data set [2] (293.15 K, x1 = 1); 893.14 ± 3 kg/m3 in data set [2] (303.15 K, x1 = 1); 886.19 ± 3.2 kg/m3 in data set [2] (313.15 K, x1 = 1). In addition, the viscosity in data set [2] (293.15 K, x1 = 1) was 0.893 ± 0.028 mPa·s; in data set [2] (303.15 K, x1 = 1) it was 0.763 ± 0.024 mPa·s; in data set [2] (313.15 K, x1 = 1) it was 0.66 ± 0.021 mPa·s.
In the case of `CC/C=C\CCOC=O` [(Z)-3-hexenyl formate], the figures for the mass density in data set [1] (293.15 K), in data set [1] (303.15 K) and in data set [1] (313.15 K) were 909.15 ± 3 kg/m3, 906.6 ± 3 kg/m3 and 903.17 ± 3.1 kg/m3, respectively. Moreover, the viscosity is 0.599 ± 0.021 mPa·s in data set [1] (293.15 K), 0.527 ± 0.019 mPa·s in data set [1] (303.15 K) and 0.469 ± 0.017 mPa·s in data set [1] (313.15 K).
For `CC/C=C\CCOC=O` [(Z)-3-hexenyl formate] + CCO, the mass density in data set [2] (293.15 K, x1 = 1) came out at 909.15 ± 3 kg/m3; in data set [2] (303.15 K, x1 = 1), 906.6 ± 3 kg/m3; in data set [2] (313.15 K, x1 = 1), 903.17 ± 3.1 kg/m3. Besides, the viscosity in data set [2] (293.15 K, x1 = 1) turned out to be 0.599 ± 0.021 mPa·s; in data set [2] (303.15 K, x1 = 1), 0.527 ± 0.019 mPa·s; in data set [2] (313.15 K, x1 = 1), 0.469 ± 0.017 mPa·s.
As for `CCCCOC(C)=O` [butyl ethanoate], the mass density in data set [1] (293.15 K) is reported as 881.04 ± 3.2 kg/m3; in data set [1] (303.15 K), 871.3 ± 3.4 kg/m3; in data set [1] (313.15 K), 861.84 ± 3.5 kg/m3. Besides, the results for the viscosity in data set [1] (293.15 K), in data set [1] (303.15 K) and in data set [1] (313.15 K) were 0.732 ± 0.023 mPa·s, 0.628 ± 0.02 mPa·s and 0.546 ± 0.018 mPa·s, respectively.
Take `CCCCOC(C)=O` [butyl ethanoate] + CCO: the mass density was determined as 881.04 ± 3.2 kg/m3 in data set [2] (293.15 K, x1 = 1); 871.3 ± 3.4 kg/m3 in data set [2] (303.15 K, x1 = 1); 861.84 ± 3.5 kg/m3 in data set [2] (313.15 K, x1 = 1). In addition, the viscosity in data set [2] (293.15 K, x1 = 1) is reported as 0.732 ± 0.023 mPa·s; in data set [2] (303.15 K, x1 = 1), 0.628 ± 0.02 mPa·s; in data set [2] (313.15 K, x1 = 1), 0.546 ± 0.018 mPa·s.
Turning to `CCO` [ethanol], the results for the mass density in data set [1] (293.15 K), in data set [1] (303.15 K) and in data set [1] (313.15 K) were 788.24 ± 4.7 kg/m3, 780.73 ± 4.8 kg/m3 and 771.98 ± 5 kg/m3, respectively. The results for the viscosity in data set [1] (293.15 K), in data set [1] (303.15 K) and in data set [1] (313.15 K) were 1.16 ± 0.037 mPa·s, 0.968 ± 0.031 mPa·s and 0.81 ± 0.026 mPa·s, respectively.
Consider `CCO` [ethanol] + CC/C=C\CCOC(C)=O, for which the mass density in data set [2] (293.15 K, x2 = 0) is given as 788.24 ± 4.7 kg/m3; in data set [2] (303.15 K, x2 = 0), 780.73 ± 4.8 kg/m3; in data set [2] (313.15 K, x2 = 0), 771.98 ± 5 kg/m3. For the same molecule, the viscosity was 1.16 ± 0.037 mPa·s in data set [2] (293.15 K, x2 = 0); 0.968 ± 0.031 mPa·s in data set [2] (303.15 K, x2 = 0); 0.81 ± 0.026 mPa·s in data set [2] (313.15 K, x2 = 0).
As for `CCO` [ethanol] + CC/C=C\CCOC=O, the mass density in data set [2] (293.15 K, x2 = 0) is on record as 788.24 ± 4.7 kg/m3; in data set [2] (303.15 K, x2 = 0), 780.73 ± 4.8 kg/m3; in data set [2] (313.15 K, x2 = 0) it was 771.98 ± 5 kg/m3. For the same molecule, the viscosity turned out to be 1.16 ± 0.037 mPa·s in data set [2] (293.15 K, x2 = 0); 0.968 ± 0.031 mPa·s in data set [2] (303.15 K, x2 = 0); 0.81 ± 0.026 mPa·s in data set [2] (313.15 K, x2 = 0).
As for `CCO` [ethanol] + CCC/C=C/COC(C)=O, the mass density in data set [2] (293.15 K, x2 = 0) was found to be 788.24 ± 4.7 kg/m3; in data set [2] (303.15 K, x2 = 0) it was 780.73 ± 4.8 kg/m3; in data set [2] (313.15 K, x2 = 0), 771.98 ± 5 kg/m3. The viscosity in data set [2] (293.15 K, x2 = 0) is given as 1.16 ± 0.037 mPa·s; in data set [2] (303.15 K, x2 = 0), 0.968 ± 0.031 mPa·s; in data set [2] (313.15 K, x2 = 0), 0.81 ± 0.026 mPa·s.
Regarding `CCO` [ethanol] + CCCCOC(C)=O, the mass density in data set [2] (293.15 K, x2 = 0) is 788.24 ± 4.7 kg/m3; in data set [2] (303.15 K, x2 = 0), 780.73 ± 4.8 kg/m3; in data set [2] (313.15 K, x2 = 0), 771.98 ± 5 kg/m3. Besides, the viscosity came out at 1.16 ± 0.037 mPa·s in data set [2] (293.15 K, x2 = 0); 0.968 ± 0.031 mPa·s in data set [2] (303.15 K, x2 = 0); 0.81 ± 0.026 mPa·s in data set [2] (313.15 K, x2 = 0).

The record behind these values is the NIST ThermoML archive (doi:10.1021/je0500025).
